Experimental data taken from ChEMBL document CHEMBL1134919, “1,3,4-Trisubstituted pyrrolidine CCR5 receptor antagonists. Part 3: polar functionality and its effect on anti-HIV-1 activity” (Bioorg Med Chem Lett, 2002).

Assays:
[1] = molecular target: T1, C-C chemokine receptor type 5 (Homo sapiens, UniProt P51681); assay: Concentration that inhibits the entry of HIV-1 in to peripheral blood mononuclear cells (PBMCs) via the antagonism of CCR5 receptor.; type: functional
Target sequence in this assay (P51681 whole entry, looked up): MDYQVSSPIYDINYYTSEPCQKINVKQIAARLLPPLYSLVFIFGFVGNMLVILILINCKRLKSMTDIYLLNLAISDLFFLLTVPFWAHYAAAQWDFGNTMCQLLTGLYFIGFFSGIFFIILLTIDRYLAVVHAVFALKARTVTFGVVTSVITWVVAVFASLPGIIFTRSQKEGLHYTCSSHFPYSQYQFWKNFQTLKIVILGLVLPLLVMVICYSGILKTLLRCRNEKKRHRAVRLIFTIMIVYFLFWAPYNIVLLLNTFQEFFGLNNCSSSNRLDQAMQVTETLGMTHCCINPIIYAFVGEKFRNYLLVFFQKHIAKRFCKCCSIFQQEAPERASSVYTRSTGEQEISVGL

[2] = molecular target: T1, C-C chemokine receptor type 5; assay: Displacement of [125I]-labeled MIP-1alpha from the C-C chemokine receptor type 5 expressed on CHO cell membranes.; type: cell-based
Target sequence in this assay (P51681 whole entry): as the sequence (P51681 whole entry, looked up) above

[3] = Inhibition (CIC90) of a single HIV-1 (BAL) infection cycle in HeLa Magi cells expressing both CXCR4 and CCR5 receptors over a 48 h period; type: functional; details: Homo sapiens
[4] = molecular target: T1, C-C chemokine receptor type 5; assay: biochemical; type: cell-based, CHO
Target sequence in this assay (P51681 whole entry): as the sequence (P51681 whole entry, looked up) above

[5] = Plasma clearance rate was determined for the compound in rat; type: ADME, organism-based; details: read-out: Clp
[6] = Half-life period was determined for the compound in rat; type: ADME, organism-based; details: in vivo

Compound	IC90 [3] [nM]	IC50 [4] [nM]	also measured
OC1(CCCc2ccccc2)CCN(C[C@H]2CN(CC3CCCCC3)C[C@@H]2c2ccccc2)CC1	200		IC95 [1]: 580 nM; IC50 [2]: 0.3 nM
OC1(CCCc2ccc(Cc3nnn[nH]3)cc2)CCN(C[C@H]2CN(CC3CCCCC3)C[C@@H]2c2ccccc2)CC1	100	1	
O=C(O)c1ccccc1CCCC1(O)CCN(C[C@H]2CN(CC3CCCCC3)C[C@@H]2c2ccccc2)CC1	> 1000	100	
O=C(O)CCc1ccc(CCCC2(O)CCN(C[C@H]3CN(CC4CCCCC4)C[C@@H]3c3ccccc3)CC2)cc1	40	2	
OC1(CCCc2ccccn2)CCN(C[C@H]2CN(CC3CCCCC3)C[C@@H]2c2ccccc2)CC1			IC50 [2]: 7 nM
O=C(O)Cc1ccc(CCCC2(O)CCN(C[C@H]3CN(CC4CCCCC4)C[C@@H]3c3ccccc3)CC2)cc1	100	5	
O=C(O)c1cccc(CCCC2(O)CCN(C[C@H]3CN(CC4CCCCC4)C[C@@H]3c3ccccc3)CC2)c1	> 1000	3	
OC1(CCCc2cccnc2)CCN(C[C@H]2CN(CC3CCCCC3)C[C@@H]2c2ccccc2)CC1			IC50 [2]: 6 nM
OC1(CCCc2ccc(-c3nnn[nH]3)cc2)CCN(C[C@H]2CN(CC3CCCCC3)C[C@@H]2c2ccccc2)CC1	4	0.2	clearance [5]: 61 mL/min/kg; half-life [6]: 20 min
O=C(O)c1ccc(CCCC2(O)CCN(C[C@H]3CN(CC4CCCCC4)C[C@@H]3c3ccccc3)CC2)cc1	1000	10	
Cn1nnnc1-c1ccc(CCCC2(O)CCN(C[C@H]3CN(CC4CCCCC4)C[C@@H]3c3ccccc3)CC2)cc1	100	0.2	
OC1(CCCc2ccncc2)CCN(C[C@H]2CN(CC3CCCCC3)C[C@@H]2c2ccccc2)CC1			IC50 [2]: 12 nM
C=CCN(C(=O)OCc1ccc([N+](=O)[O-])cc1)C1CCN(C[C@H]2CN(C(=O)c3ccccc3Cl)C[C@@H]2c2ccccc2)CC1	1		IC95 [1]: 31 nM
C[n+]1n[nH]c(-c2ccc(CCCC3(O)CCN(C[C@H]4CN(CC5CCCCC5)C[C@@H]4c4ccccc4)CC3)cc2)n1	> 300	0.4	
O=C(O)Cc1cccc(CCCC2(O)CCN(C[C@H]3CN(CC4CCCCC4)C[C@@H]3c3ccccc3)CC2)c1	300	6	
